Paper PMC10994559 (PLOS Neglected Tropical Diseases, 2024)
Where two headings read alike, the source gives them in different places.

Columns and labels:
E. histolytica = E. histolytica viability, ATP luminescence (Cell titer glo); assay type: cell-based, Entamoeba histolytica; conditions: Entamoeba histolytica, 48 h; for viability at 2.5 µM: read-out: Residual viability, E.histolytica (2.5 µM); for viability at 25 µM: read-out: Residual viability, E.histolytica (25 µM)
Protocol: Entamoeba histolytica (strain B2-5) was passaged in TY-1 medium (Trypticase peptone BBL, Yeast extract BBL, glucose, NaCl, K2HPO4, KH2PO4, cysteine, ascorbic acid, ammonium iron citrate, adult bovine serum, Diamond tween 80, penicillin G, amikacin (pH:6.8)) and kept in 37°C incubator in completely filled tubes with closed lid.
Viability of E. histolytica was assayed via a luminescence assay based on ATP quantification in the live cells. Briefly, 2.5x10^4 cell/ml were exposed to 25 μM of compounds in 96 well plates (non-transparent, tissue culture treated, flat bottom; SPL Life Sciences) in triplicate for 48h. Plates were incubated in sealed anaerobic bags (Oxoid AGS) together with an Anaerogen compact bag (Thermo Scientific) and anaerobic indicator (Thermo Scientific) at 37°C. Then, Cell titer glo reagent (Promega) was added to the reaction (1:5) according to manufacturers’ instruction. After 15 min of orbital shaking, followed by 10 min incubation at RT, ATP-bioluminescence was quantified at RT using a Synergy H1 plate reader (Synergy H1, BioTek). Metronidazole was included as control drug in all the assays for E. histolytica. Test compounds indicating significant growth reduction in the primary screen were subjected to potency determination. These secondary screens were essentially carried out as detailed above, but with a 9 to 16-point concentration range of the test compounds spanning 0.01–100 μM.

[1] = tested on: L. major axenic amastigotes; test: L. major axenic amastigote viability, resazurin reduction; conditions: Leishmania major
Protocol: L. major LV561(MHOM/IL/67/LRC-L137 JERICHO II) amastigotes were passaged in Grace insect medium supplemented with NaHCO3, 0.1% amikin and 20% of FCS (pH: 5.4) and kept at 33°C.
Exponential growth phase promastigotes of L. major or L. infantum and axenic amastigotes (L. major) were harvested and seeded in 384 well plates (white, non-transparent, tissue culture treated, flat bottom; Corning) (0.5x10^5 cells per well). Compounds were pre-dispensed into the plate with an Echo 650 acoustic dispenser (Beckman Coulter). After 72h incubation, resazurin was added (1:10 v/v) from a […] stock in PBS, followed by incubation for six hours. Then, fluorescence intensity was measured using a microplate reader (Synergy H1, BioTek) with excitation filter: 550 nm and emission filter: 590 nm. Efficient compounds were selected for the next round of viability assay with 2.5 μM concentrations of the compounds. […] All experiments were performed with AmB as a positive control drug in parallel.
Axenic amastigotes, the relevant form that persists in the infected host, were generated in the lab through established procedures, employing harsh pH (pH 5) and high temperature (33°C) conditions.

[2] = tested on: intracellular L. infantum amastigotes; test: Parasite rescue assay (intramacrophage, J774 infected with L. infantum); assay type: cell-based, Leishmania infantum; conditions: Leishmania infantum, J774, rescue assay in J774, 25 µM; read-out: Residual viability, intracellular L. infantum amastigote (25 µM)
Protocol: After 24 h incubation, cells were washed five times with serum free RPMI and exposed to a serial dilution of test compounds, prepared using an acoustic dispenser (Echo 650, Labcyte), in RPMI (2% FCS). After two days, cells were washed thrice, and 20 μl of 0.05% SDS in RPMI was added upon removal of the supernatant. Upon incubation under orbital shaking for 30 seconds, cell lysis was stopped by addition of 180 μl M199 medium supplemented with 10% FCS. […] Then, fluorescence intensity of the samples was measured with a microplate reader (Synergy H1, BioTek) with λEx: 550 nm and λEm: 590 nm. Percent of viability was calculated according to cell only and media controls.
J774A.1 cells (J774) were infected with L. infantum metacyclic promastigotes. […] After controlled lysis of the infected macrophages, the released parasites were quantified using a resazurin based viability assay.

T. cruzi trypomastigotes = test: T. cruzi viability, resazurin reduction; assay type: cell-based, Trypanosoma cruzi; conditions: Trypanosoma cruzi, 72 h, 72 h
Protocol: T. cruzi (Y strain) trypomastigotes were passaged in liver infusion broth media supplemented with tryptose, NaCl, Na2HPO4, KCl, glucose, hemin, Pen-Strep (1%), 10% FCS (pH: 7.2) and kept at 28°C.
(§1) Viability of T. brucei brucei BSF and T. cruzi trypomastigotes was assayed with fluorescence resazurin reduction assay, essentially as described above. […] Next, selected compounds were tested at 2.5 μM concentration, and promising compounds subjected to 18 concentrations dose response analyses. AN3057 and AmB were used as a control drug in T. brucei and T. cruzi, respectively.

[3] = Cytotoxicity assay J774, resazurin reduction; assay type: cell-based, murine; conditions: mouse, J774 macrophage cells, cytotoxicity, 72 h
Protocol: Mammalian cell lines (J774 and HepG2) were passaged in RPMI media supplemented with MEM, Pen-Strep (1%) and 10% FCS. Cultures were kept at 37°C incubator with 5% CO2 in filter-cap flasks.
Murine macrophage cells (J774) and human hepatocyte carcinoma HepG2 cells were seeded at 0.5x10^5 cell/well in 384 well plates in triplicate, exposed to serial dilution of compounds, dispensed using an Echo 650 acoustic dispenser (Labcyte). After incubation for 72 h at 37°C, 5% CO2, cell viability was determined using fluorescence resazurin reduction assay (λEx: 550 nm; λEm: 590 nm).

L. major promastigotes = test: L. major promastigote viability, resazurin reduction; assay type: cell-based, Leishmania major; conditions: Leishmania major; 25 µM, 72 h, vs non-treated cells; read-out: Residual viability, L.major promastigote (25 µM)
From the text: (§2) The infectivity of the parasites was boosted by passaging in Balb/c mice and culturing the infected lymph nodes after six weeks. L. infantum (MHOM / BR / 76 / M4192) parasite was passaged in the same media formulation with 0.5% urine.

T. brucei brucei BSF = test: T. brucei BSF viability, resazurin reduction; assay type: cell-based, Trypanosoma brucei brucei; conditions: Trypanosoma brucei, 72 h, BSF, 72 h
Protocol: T. brucei brucei (strain 427 Lister) blood stream form (BSF) parasites were passaged in complete HMI-9 media supplemented with 10% FCS, Pen-Strep (0.1%) and 2-mercaptoethanol (0.014 v/v) and kept in a 37° C CO2 incubator in filter-cap flasks.
as §1

[4] = tested on: L. infantum promastigotes; test: L. infantum promastigote viability, resazurin reduction; assay type: cell-based, Leishmania infantum; conditions: Leishmania infantum, 72 h, vs non-treated cells
From the text: as §2

T. brucei BSF proteome = tested on: T. brucei BSF proteome; set-up: method as in PMID: 32354742; conditions: ref PMID: 32354742, cited from earlier work

CC[C@@H](C)[C@H](c1nc2ccccc2n1Cc1cn(-c2c(F)c(F)c(F)c(F)c2F)nn1)N1C(=O)c2ccccc2C1=O [PHT-41]
viability at 2.5 µM (E. histolytica; 2.5 µM): 110 ± 24.2%
viability at 25 µM (E. histolytica; 25 µM): 53.3 ± 1.97%
viability at 2.5 µM ([1]; 72 h, read-out: Residual viability, L.major amastigote (2.5 µM)): 64.8 ± 5.36%
viability at 25 µM ([1]; 72 h, read-out: Residual viability, L.major amastigote (25 µM)): 4.6%
EC50 ([1]; read-out: EC50 L. major axenic amastigote): 3.6 ± 2.1 µM
viability at 25 µM [2]: 81.4 ± 2.86%
viability at 2.5 µM (T. cruzi trypomastigotes; 2.5 µM, read-out: Residual viability, T.cruzi (2.5 µM)): 64.5 ± 2.58%
viability at 25 µM (T. cruzi trypomastigotes; read-out: Residual viability, T.cruzi (25 µM), 25 µM, 72 h): 22.7 ± 0.63%
viability at 72 h, 2.5 µM ([3]; 2.5 µM, read-out: Residual viability, J774 (2.5 µM)): 96.1 ± 3.84%
viability at 72 h, 25 µM ([3]; 25 µM, read-out: Residual viability, J774 (25 µM)): 86.1 ± 5.26%
viability at 25 µM (L. major promastigotes): 21.5 ± 1.47%
viability at 2.5 µM (T. brucei brucei BSF; 2.5 µM, read-out: Residual viability, T.brucei (2.5 µM)): 57.4 ± 11%
viability at 25 µM (T. brucei brucei BSF; 25 µM, read-out: Residual viability, T.brucei (25 µM)): 3.15 ± 3%
viability at 2.5 µM ([4]; 2.5 µM, read-out: Residual viability, L. infantum promastigote (2.5 µM)): 54.6 ± 1.29%
viability at 25 µM ([4]; 25 µM, ± SD, triplicate, read-out: Residual viability, L. infantum promastigote (25 µM)): 12.4 ± 1.22%

Cc1ccc(C(=O)Nc2ccc(S(=O)(=O)O)c3cc(S(=O)(=O)O)cc(S(=O)(=O)O)c23)cc1NC(=O)c1cccc(NC(=O)Nc2cccc(C(=O)Nc3cc(C(=O)Nc4ccc(S(=O)(=O)O)c5cc(S(=O)(=O)O)cc(S(=O)(=O)O)c45)ccc3C)c2)c1 [suramin]
suramin ratio (protein abundance) (T. brucei BSF proteome; protein 2-oxoglutarate dehydrogenase E1 component, Tb927.11.1450): 2.73
suramin ratio (protein abundance) (T. brucei BSF proteome; protein 2-oxoglutarate dehydrogenase E1 component, Tb927.11.9980): 3.16
suramin ratio (protein abundance) (T. brucei BSF proteome; protein ACS1, Tb927.7.6180): 0.80
suramin ratio (protein abundance) (T. brucei BSF proteome; protein Aconitase, Tb927.10.14000): 2.76
suramin ratio (protein abundance) (T. brucei BSF proteome; protein CIF1 (TOEFAZ1), Tb927.11.15800): 0.78
suramin ratio (protein abundance) (T. brucei BSF proteome; protein CIF3, Tb927.10.13100): 1.00
suramin ratio (protein abundance) (T. brucei BSF proteome; protein CIF4, Tb927.10.8240): 0.84
suramin ratio (protein abundance) (T. brucei BSF proteome; protein F1 alpha, Tb927.7.7430, Tb927.7.7420): 1.62
suramin ratio (protein abundance) (T. brucei BSF proteome; protein F1 beta, Tb927.3.1380): 1.57
suramin ratio (protein abundance) (T. brucei BSF proteome; protein F1 gamma, Tb927.10.180): 1.62
suramin ratio (protein abundance) (T. brucei BSF proteome; protein F1 p18, Tb927.5.1710): 0.87
suramin ratio (protein abundance) (T. brucei BSF proteome; protein FPRC, Tb927.10.6360): 1.14
suramin ratio (protein abundance) (T. brucei BSF proteome; protein Fo 8, Tb927.4.3450): 1.62
suramin ratio (protein abundance) (T. brucei BSF proteome; protein Fo ATBTB1, Tb927.10.520): 1.20
suramin ratio (protein abundance) (T. brucei BSF proteome; protein Fo ATBTB3, Tb927.11.6250): 1.77
suramin ratio (protein abundance) (T. brucei BSF proteome; protein Fo ATBTB4, Tb927.10.9830): 0.88
suramin ratio (protein abundance) (T. brucei BSF proteome; protein Fo ATBTB12, Tb927.5.3090): 1.92
suramin ratio (protein abundance) (T. brucei BSF proteome; protein Fo OSCP, Tb927.10.8030): 1.11
suramin ratio (protein abundance) (T. brucei BSF proteome; protein Fo d, Tb927.5.2930): 1.32
suramin ratio (protein abundance) (T. brucei BSF proteome; protein Fo e, Tb927.11.600): 1.21
suramin ratio (protein abundance) (T. brucei BSF proteome; protein Fo f, Tb927.3.1690): 1.06
suramin ratio (protein abundance) (T. brucei BSF proteome; protein Fo i/j, Tb927.3.2880): 1.67
suramin ratio (protein abundance) (T. brucei BSF proteome; protein Fo k, Tb927.7.840): 1.07
suramin ratio (protein abundance) (T. brucei BSF proteome; protein Glutamate dehydrogenase, Tb927.9.5900): 3.30
suramin ratio (protein abundance) (T. brucei BSF proteome; protein PIP39, Tb927.9.6090): 2.83
suramin ratio (protein abundance) (T. brucei BSF proteome; protein PPDK, Tb927.11.6280): 2.94
suramin ratio (protein abundance) (T. brucei BSF proteome; protein Proline dehydrogenase, Tb927.7.210): 4.55
suramin ratio (protein abundance) (T. brucei BSF proteome; protein SAXO, Tb927.8.6240): 0.98
suramin ratio (protein abundance) (T. brucei BSF proteome; protein Tb927.1.4280): 0.91
suramin ratio (protein abundance) (T. brucei BSF proteome; protein isocitrate dehydrogenase, Tb927.8.3690): 1.96
suramin ratio (protein abundance) (T. brucei BSF proteome; protein mitochondrial malate dehydrogenase, Tb927.10.2560): 1.99
suramin ratio (protein abundance) (T. brucei BSF proteome; protein succinyl-CoA ligase beta-chain, Tb927.10.7410): 1.97
suramin ratio (protein abundance) (T. brucei BSF proteome; protein succinyl-CoA synthetase alpha subunit, Tb927.3.2230): 1.94

Cc1ncc([N+](=O)[O-])n1CCO [Metronidazole, reference compound]
viability at 2.5 µM (E. histolytica): 71.6 ± 32.3%
viability at 25 µM (E. histolytica): -7.82 ± 3.48%
EC50 (E. histolytica; 9 to 16-point dose response): 2.9 ± 1.8 µM
